Results reported in patent publication US9872853B2, “2,3-dihydro-1H-indole compounds” (Eli Lilly and Company, priority 2016, dated 2018).
pIC50: −log10 of the molar value. Where “and” joins values, the source holds several entries; their conditions need not be identical. Equal entries are not always repeated. Where two headings read alike, the source gives them in different places.

Columns and labels:
His6-IDO1 = biological target: T1, His6-IDO1 (Homo sapiens, UniProt P14902); assay: Binding assay for IDO1: competition with a tritiated spy molecule; settings: displacement of 50 nM tritiated spy molecule, four hours, room temperature
T1 construct: purchased Proteros PR-0278
T1 sequence (P14902 whole entry): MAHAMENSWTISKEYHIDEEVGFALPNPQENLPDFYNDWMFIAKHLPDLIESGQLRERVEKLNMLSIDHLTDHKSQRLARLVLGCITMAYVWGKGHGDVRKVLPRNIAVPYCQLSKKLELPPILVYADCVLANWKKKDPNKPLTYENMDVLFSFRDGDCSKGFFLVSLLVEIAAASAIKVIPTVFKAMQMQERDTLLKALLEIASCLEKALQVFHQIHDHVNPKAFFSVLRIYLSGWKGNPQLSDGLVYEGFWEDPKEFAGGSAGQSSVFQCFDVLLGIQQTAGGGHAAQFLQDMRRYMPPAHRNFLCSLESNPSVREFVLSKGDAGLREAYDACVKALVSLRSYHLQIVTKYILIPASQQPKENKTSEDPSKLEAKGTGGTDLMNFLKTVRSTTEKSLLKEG
Procedure: Specifically, this assay assesses the ability of test compounds to compete with a tritiated spy molecule 1-(2,4-difluorophenyl)-3-[[1-(3,4,5-tritritiobenzoyl)indolin-5-yl]methyl]urea and allows for the calculation of the binding affinity, IC50.
Competitive Binding of 1-(2,4-Difluorophenyl)-3-[[1-(3,4,5-tritritiobenzoyl)indolin-5-yl]methyl]urea to IDO1
Load 300 nM His6-IDO1 (Proteros, SwissProtID P14902, Cat# PR-0278, batch 19/59, 98 mg/mL in 25 mM MES pH 6.5, 150 mM KCl, purity >95%) diluted in DPBS to each well of nickel coated plate (Sigma, Cat#55563) and incubate overnight at 4° C. Remove unbound proteins by washing plate with 300 μL DPBS four times in BIOTEK® Microplate Washer. Add 100 μL of blocking buffer (0.05% TWEEN® 20/DPBS) per well and incubate for one hour at room temperature to reduce nonspecific binding. While blocking the plate, prepare 50 nM 1-(2,4-difluorophenyl)-3-[[1-(3,4,5-tritritiobenzoyl)indolin-5-yl]methyl]urea (Biocair, Cat# TRQ41455) by diluting in DPBS, and serially dilute unlabeled stock solution 2.5-fold in DMSO to generate an eleven point dilution curve. […] Quantitate total bound and nonspecific binding (NSB) of the 1-(2,4-difluorophenyl)-3-[[1-(3,4,5-tritritiobenzoyl)indolin-5-yl]methyl]urea ligand using a Trilux Microbeta Counter. […]

IDO1 activity in SKOV3 = biological target: T2, IDO1 activity in SKOV3 (Homo sapiens, UniProt P14902); assay: Kynurenine production assay (SKOV3); format: cell-based; settings: SKOV3 cells, 18 hours, MS measurement in media
T2 construct: an ovarian cancer cell line that intrinsically expresses IDO1; host or cells: SKOV3 (in vitro); SKOV3X (Indiana University Research and Technology Center) as intraperitoneal xenograft tumours in athymic nude mice
T2 sequence (P14902 whole entry): as above
Procedure: The purpose of this assay is to evaluate the inhibition of the production of kynurenine, N-formyl-kynurenine and the depletion of tryptophan in IDO1 expressing cancer cells and assess whether compounds are overtly toxic to these cells. Exemplary compounds are tested for the inhibition of IDO1 activity in SKOV3 (ATCC, Cat# HTB-77), an ovarian cancer cell line that intrinsically expresses IDO1. Due to IDO1 expression, SKOV3 cells degrade tryptophan with the concomitant production of kynurenine and compounds are tested for their ability to inhibit the production of kynurenine, N-formyl-kynurenine and the depletion of tryptophan. Optionally, overt toxicity of compounds can be assessed by monitoring cell viability.
Plate SKOV3 cells, an IDO1-expressing ovarian cancer cell line, at 20,000 cells per well in 100 μL of McCoys 5A media (Gibco, Cat#16600-082) supplemented with non-essential amino acids (Gibco, Cat#11140-050), 1 mM sodium pyruvate (Gibco, Cat#11360-070), and 10% fetal bovine serum, complete media, in a 96 well tissue culture plate (BD Biosciences). Then, incubate cells for 16 hours in a 37° C. incubator with 5% CO2. […] Optionally, return original plate(s) to the incubator for an additional 24 hours and measure the viability of cells by adding an equal volume of CELLTITER-GLO® (Promega) and measure luminescence in an PERKIN ELMER® EnVision plate reader. […]

Colon26 tumors = assay: Mouse syngeneic Colon26 model for colon cancer; format: in vivo, BALB/c mice
Procedure: Grow the mouse BALB/c-derived Colon26 colon cancer cell line in RPMI 1640 medium supplemented with 10 mM HEPES, […] sodium pyruvate, and 10% fetal bovine serum. Harvest sub-confluent cells with trypsin and rinse twice with complete growth medium lacking serum. Initiate subcutaneous tumors by injecting 1×10^6 cells resuspended in HBSS in the rear flank of immune-competent BALB/c mice (Envigo, Indianapolis, Ind.). Six days after tumor implantation, randomize animals based on body weight and place into their respective treatment groups using the number of animals per group as indicated.
(§1) Capture tumor size and body weight using Study Director. Estimate tumor volume (V) by using the formula: V=0.536×L×W^2 where L=larger measured diameter and W=smaller of the perpendicular diameter. Transform the tumor volume data to a log scale to equalize variance across time and treatment groups. Analyze the log volume data with a two-way repeated measures analysis of variance by time and treatment using the MIXED procedures in SAS software (Version 9.2). The correlation model for the repeated measures is Spatial Power. Compare treated groups to the control group at each time point. Use the MIXED procedure also separately for each treatment group to calculate adjusted means and standard errors at each time point. Both analyses account for the autocorrelation within each animal and for the loss of data that occurs when animals with large tumors are removed from the study early. Calculate relative changes in tumor volume (% T/C) using the tumor volume measurements taken nearest to the last day of dosing with Example 1A, using the formula % T/C=100×ΔT/ΔC, where T=mean tumor volume of the compound treated group, ΔT=mean tumor volume of the compound treated group minus the mean tumor volume on the baseline day, C=mean tumor volume of the control (vehicle) group, and ΔC=mean tumor volume of the control group minus the mean tumor volume on the baseline day. If ΔT<0, then a tumor regression value is calculated instead of % T/C whereby % Regression=100×ΔT/Tinitial such that Tinitial=mean tumor volume on the baseline day.
(§2) Assess antitumor efficacy of Example 1A and LY3300054 alone, or in combination by measuring tumor volume by three dimensional caliper measurements twice a week during the course of the study. Measure body weight twice weekly during the course of the study, as a general indicator of tolerability.
(§3) Formulations for Example 1A and LY3300054: Formulate Example 1A on a weekly basis in 1% HEC/0.25% Tween 80/0.05% Antifoam and store at 4° C. Solublize LY3300054 in phosphate buffered saline and store at 4° C.
Control group(s): For single agent efficacy studies, administer vehicle for Example 1A alone. For combination studies, administer both vehicles used for Example 1A and LY3300054 according to the same schedule for each compound, respectively. For monotherapy groups in combination efficacy studies, treat the animals with the desired compound and the vehicle for the compound not being dosed following the schedule for the non-dosed compound.
Treat female BALB/c mice (n=10) bearing Colon26 tumors with Example 1A twice daily for 21 days by oral gavage at doses of 10, 50, and 100 mg/kg. Start administration of Example 1A six days after tumor implantation, and monitor tumor growth and body weight twice a week for the duration of the treatment period.

L55 tumors = assay: L55 humanized tumor model with hPBMC challenge; format: in vivo; settings: for tolerability (body weight): with or without hPBMCs
Excerpt: Grow the human NSCLC cell line, L55, in RPMI 1640 medium supplemented with 10% fetal bovine serum. Harvest sub-confluent cells with trypsin and rinse twice with growth medium lacking serum. Initiate the growth of subcutaneous tumors by injecting 5×10^6 in a 1:1 mixture of HBSS and MATRIGEL® (BD Biosciences, Franklin Lakes, N.J.) in the rear flank of NOD.Cg-Prkdc^scidI12rg^tm1Wjl/SzJ mice more commonly known as NOD scid gamma chain knockout mice (NSG) mice (The Jackson Laboratory, Bar Harbour, Me.), which lack T cells, B cells, NK cells, and are deficient in cytokine signaling. When the mean tumor volume reaches approximately 200-300 mm^3, randomize the animals by tumor size and body weight and place into their respective treatment groups as indicated. After randomization, challenge tumor-bearing mice with PBS alone (no PBMCs) or with PBS containing 1×10^7 human PBMCs into the tail vein of recipients.
as §1, §2, §3
Control group(s): For single agent efficacy studies, administer vehicle for Example 1A alone. For combination studies, administer both vehicles used for Example 1A and LY3300054 according to the same schedule for each compound, respectively. For monotherapy groups in combination efficacy studies, treat the animals with the desired compound and the vehicle for the compound not being dosed following the schedule for the non-dosed compound. […]

Molecule | pIC50 (His6-IDO1) | pIC50 (IDO1 activity in SKOV3; read-out: IC50 for inhibiting N-formyl-kynurenine) | pIC50 (IDO1 activity in SKOV3; read-out: IC50 for inhibiting kynurenine) | reduction in body weight compared to baseline (Colon26 tumors; 10 mg/kg twice daily, day 20) [%] | reduction in body weight compared to baseline (Colon26 tumors; 50 mg/kg twice daily, day 20) [%] | reduction in body weight compared to baseline (Colon26 tumors; 100 mg/kg twice daily, day 20) [%] | tolerability (body weight changes) (Colon26 tumors; 10, 50 and 100 mg/kg twice daily for 21 days, versus vehicle-treated mice) | tumor growth inhibition (statistics) (Colon26 tumors; only 50 and 100 mg/kg doses, day 20) | tumor growth inhibition (L55 tumors; 75 mg/kg twice daily oral, absence of hPBMCs, versus vehicle without PBMCs) | tolerability (body weight) (L55 tumors; 75 mg/kg twice daily oral) | effect on tumor growth (L55 tumors; 10 mg/kg intraperitoneal once a week for 4 weeks, with hPBMCs, versus vehicle) | change in tumor volume (% T/C) (L55 tumors; 10 mg/kg intraperitoneal once a week, with hPBMCs, day 37, versus vehicle lacking PBMCs) [%] | tolerability (body weight) (L55 tumors; 10 mg/kg intraperitoneal once a week)
C[C@@H](NC(=O)c1ccc(F)cc1)c1ccc2c(c1)CCN2C(=O)C1CCOCC1 (single isomer, unassigned) [Example 1A] | > 5.82 and 7.48 | 8.15 | 8.15 | 2.5 | 8 | 2.5 | no significant tolerability issues | statistically (p<0.001) relevant growth inhibition | did not result in significant tumor growth inhibition | No significant tolerability issues | – | – | –
C[C@H](NC(=O)c1ccc(F)cc1)c1ccc2c(c1)CCN2C(=O)C1CCOCC1 (single isomer, unassigned; isomer 2) [Example 1B] | > 5.82 | – | – | – | – | – | – | – | – | – | – | – | –
LY3300054: an antibody that binds human PD-L1 (SEQ ID NO: 1), comprising a light chain (LC) and a heavy chain (HC) | – | – | – | – | – | – | – | – | – | – | statistically significant tumor growth inhibition | 75.7 | No significant tolerability issues
